In ChEMBL document CHEMBL1201862, “PubChem BioAssay data set” (2004):
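Protocol summary: plate cells (96-well), add compound at 5 concentrations, incubate 48 h, interpolate endpoints linearly. GI50 = concentration required for 50% inhibition of growth.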 Active and inactive are the calls of the source. No stated cut-off is given here; in the data, active = GI50 up to about 1.1 µM and inactive = higher.

How the values were obtained:
Assay in all cases: NCI tumour cell line growth inhibition, 48 h
[1] = test system: PC-3
[2] = test system: HT-29
[3] = test system: NCI-H460
[4] = test system: SF-295
[5] = test system: SW-620
[6] = test system: HOP-92
[7] = test system: OVCAR-8
[8] = test system: NCI-H522
[9] = test system: A549
[10] = test system: SF-268
[11] = test system: HCT-116
[12] = test system: RPMI-8226
[13] = test system: SNB-75
[14] = test system: A498
[15] = test system: SR
[16] = test system: SK-MEL-5
[17] = test system: IGROV-1
[18] = test system: SF-539
[19] = test system: EKVX
[20] = test system: CAKI-1
[21] = test system: BT-549
[22] = test system: MDA-MB-231
[23] = test system: ACHN
[24] = test system: OVCAR-3
[25] = test system: TK-10
[26] = test system: K562
[27] = test system: RXF 393
[28] = test system: SNB-19
[29] = test system: MOLT-4
[30] = test system: SK-OV-3
[31] = test system: LOX IMVI
[32] = test system: Hs-578T
[33] = test system: HL-60
[34] = test system: U-251
[35] = test system: CCRF-CEM
[36] = test system: HOP-62
[37] = test system: SK-MEL-2
[38] = test system: KM12
[39] = test system: NCI/ADR-RES
[40] = test system: COLO 205
[41] = test system: 786-0
[42] = test system: HCT-15
[43] = test system: NCI-H226
[44] = test system: OVCAR-4
[45] = test system: UACC-62
[46] = test system: MDA-MB-435
[47] = test system: MCF7
[48] = test system: UACC-257
[49] = test system: MDA-N
[50] = test system: M14
[51] = test system: T47D
[52] = test system: OVCAR-5
[53] = test system: UO-31
[54] = test system: Malme-3M
[55] = test system: NCI-H23
[56] = test system: SN12C
[57] = test system: SK-MEL-28
[58] = test system: HCC 2998
[59] = test system: DU-145

SMILES: Cn1c(N(CCO)CCO)cnc1[N+](=O)[O-]
- GI50 [1]: > 100 µM (inactive)
- GI50 [2]: > 100 µM (inactive)
- GI50 [3]: > 100 µM (inactive)
- GI50 [4]: > 100 µM (inactive)
- GI50 [5]: > 100 µM (inactive)
- GI50 [6]: > 100 µM (inactive)
- GI50 [7]: > 100 µM (inactive)
- GI50 [8]: > 100 µM (inactive)
- GI50 [9]: > 100 µM (inactive)
- GI50 [10]: > 100 µM (inactive)
- GI50 [11]: > 100 µM (inactive)
- GI50 [12]: > 100 µM (inactive)
- GI50 [13]: > 100 µM (inactive)
- GI50 [14]: > 100 µM (inactive)
- GI50 [15]: > 100 µM (inactive)
- GI50 [16]: > 100 µM (inactive)
- GI50 [17]: > 100 µM (inactive)
- GI50 [18]: > 100 µM (inactive)
- GI50 [19]: > 100 µM (inactive)
- GI50 [20]: > 100 µM (inactive)
- GI50 [21]: > 100 µM (inactive)
- GI50 [22]: > 100 µM (inactive)
- GI50 [23]: > 100 µM (inactive)
- GI50 [24]: > 100 µM (inactive)
- GI50 [25]: > 100 µM (inactive)
- GI50 [26]: > 100 µM (inactive)
- GI50 [27]: > 100 µM (inactive)
- GI50 [28]: > 100 µM (inactive)
- GI50 [29]: > 100 µM (inactive)
- GI50 [30]: > 100 µM (inactive)
- GI50 [31]: > 100 µM (inactive)
- GI50 [32]: > 100 µM (inactive)
- GI50 [33]: > 100 µM (inactive)
- GI50 [34]: > 100 µM (inactive)
- GI50 [35]: > 100 µM (inactive)
- GI50 [36]: > 100 µM (inactive)
- GI50 [37]: > 100 µM (inactive)
- GI50 [38]: > 100 µM (inactive)
- GI50 [39]: > 100 µM (inactive)
- GI50 [40]: > 100 µM (inactive)
- GI50 [41]: > 100 µM (inactive)
- GI50 [42]: > 100 µM
- GI50 [43]: > 100 µM (inactive)
- GI50 [44]: > 100 µM (inactive)
- GI50 [45]: > 100 µM (inactive)
- GI50 [46]: > 100 µM (inactive)
- GI50 [47]: > 100 µM (inactive)
- GI50 [48]: > 100 µM (inactive)
- GI50 [49]: > 100 µM (inactive)
- GI50 [50]: > 100 µM (inactive)
- GI50 [51]: > 100 µM (inactive)
- GI50 [52]: > 100 µM (inactive)
- GI50 [53]: > 100 µM (inactive)
- GI50 [54]: > 100 µM (inactive)
- GI50 [55]: > 100 µM (inactive)

SMILES: C=CCc1c(C)nc(C)nc1N/N=C/C=C/c1ccccc1
- GI50 [1]: 34.9 µM (inactive)
- GI50 [2]: 30.8 µM (inactive)
- GI50 [3]: 22.4 µM (inactive)
- GI50 [4]: 19.5 µM (inactive)
- GI50 [5]: 51.8 µM (inactive)
- GI50 [6]: 40.5 µM (inactive)
- GI50 [7]: 32.2 µM (inactive)
- GI50 [8]: 28.2 µM (inactive)
- GI50 [9]: 37.4 µM (inactive)
- GI50 [10]: 44.1 µM (inactive)
- GI50 [56]: 48 µM (inactive)
- GI50 [11]: 36.1 µM (inactive)
- GI50 [12]: 21.9 µM (inactive)
- GI50 [13]: 21.9 µM (inactive)
- GI50 [14]: 25.9 µM (inactive)
- GI50 [15]: 22.6 µM (inactive)
- GI50 [16]: 20.3 µM (inactive)
- GI50 [17]: 31.4 µM (inactive)
- GI50 [18]: 32.1 µM (inactive)
- GI50 [57]: 41 µM (inactive)
- GI50 [19]: 17.6 µM (inactive)
- GI50 [20]: 58.6 µM (inactive)
- GI50 [21]: 23.8 µM (inactive)
- GI50 [22]: > 100 µM (inactive)
- GI50 [23]: > 100 µM (inactive)
- GI50 [24]: 19.4 µM (inactive)
- GI50 [25]: 33 µM (inactive)
- GI50 [26]: 23.3 µM (inactive)
- GI50 [27]: 4.06 µM (inactive)
- GI50 [28]: 31.8 µM (inactive)
- GI50 [29]: 22.4 µM (inactive)
- GI50 [30]: 55.5 µM (inactive)
- GI50 [31]: 39.1 µM (inactive)
- GI50 [32]: 48.9 µM (inactive)
- GI50 [33]: 33.6 µM (inactive)
- GI50 [34]: 23.6 µM (inactive)
- GI50 [35]: 44 µM (inactive)
- GI50 [36]: 16.5 µM (inactive)
- GI50 [37]: 36.7 µM (inactive)
- GI50 [39]: 23.9 µM (inactive)
- GI50 [40]: 24.8 µM (inactive)
- GI50 [41]: 65.2 µM (inactive)
- GI50 [42]: 35.4 µM
- GI50 [43]: > 100 µM (inactive)
- GI50 [44]: 0.0435 µM (active)
- GI50 [45]: 20.6 µM (inactive)
- GI50 [46]: 23.6 µM (inactive)
- GI50 [47]: 23.6 µM (inactive)
- GI50 [48]: 14.4 µM (inactive)
- GI50 [49]: 29.2 µM (inactive)
- GI50 [50]: 31.2 µM (inactive)
- GI50 [51]: 3.73 µM (inactive)
- GI50 [52]: 99.5 µM (inactive)
- GI50 [53]: 39.7 µM (inactive)
- GI50 [54]: 70 µM (inactive)
- GI50 [55]: 27.9 µM (inactive)

SMILES: Nc1ccc2cc3ccc(N)cc3nc2c1
- GI50 [2]: 0.499 µM (active)
- GI50 [3]: 0.46 µM (active)
- GI50 [4]: 2.42 µM (inactive)
- GI50 [5]: 0.395 µM (active)
- GI50 [58]: 1.25 µM (inactive)
- GI50 [7]: 0.678 µM (active)
- GI50 [10]: 1.37 µM (inactive)
- GI50 [56]: 0.979 µM (active)
- GI50 [11]: 0.482 µM (active)
- GI50 [13]: 1.34 µM (inactive)
- GI50 [15]: 0.667 µM (active)
- GI50 [16]: 1.4 µM (inactive)
- GI50 [18]: 1.02 µM (active)
- GI50 [57]: 2 µM (inactive)
- GI50 [19]: 1.56 µM (inactive)
- GI50 [20]: 1.56 µM (inactive)
- GI50 [21]: 3.72 µM (inactive)
- GI50 [22]: 1.94 µM (inactive)
- GI50 [23]: 0.826 µM (active)
- GI50 [24]: 2.09 µM (inactive)
- GI50 [25]: 2.69 µM (inactive)
- GI50 [29]: 0.524 µM (active)
- GI50 [32]: 2.43 µM (inactive)
- GI50 [33]: 1.56 µM (inactive)
- GI50 [35]: 1 µM (active)
- GI50 [36]: 1.62 µM (inactive)
- GI50 [39]: 1.03 µM (active)
- GI50 [40]: 0.771 µM (active)
- GI50 [45]: 1.41 µM (inactive)
- GI50 [47]: 0.757 µM (active)
- GI50 [59]: 3.33 µM (inactive)
- GI50 [48]: 2 µM (inactive)
- GI50 [49]: 1.41 µM (inactive)
- GI50 [51]: 2.63 µM (inactive)
- GI50 [52]: 1.63 µM (inactive)
- GI50 [53]: 0.993 µM (active)
